Results from publication PMC9554301, “Rapid modeling of experimental molecular kinetics with simple electronic circuits instead of with complex differential equations” (Frontiers in Bioengineering and Biotechnology, 2022).

Legend:
[1] = molecular target: T1, beta-galactosidase (Escherichia coli, UniProt P00722); assay: ONPG hydrolysis absorbance assay at […] nm, Lineweaver-Burk; assay type: biochemical
T1 construct: gene lacZ

[2] = molecular target: T1, beta-galactosidase; assay: product-feedback inhibition of ONPG hydrolysis, absorbance at […] nm; assay type: biochemical
[3] = molecular target: T1, beta-galactosidase; assay: hydrolysis kinetics (Km), absorbance of 2-nitrophenol at […] nm; assay type: biochemical
[4] = substrate: CCO; assay: ethanol oxidation kinetics (Km), NADH absorbance, Lineweaver-Burk; assay type: biochemical, Saccharomyces cerevisiae; details: NAD+ binds the E-NAD complex (ordered Bi-Bi)

T1 sequence (P00722 2-1024): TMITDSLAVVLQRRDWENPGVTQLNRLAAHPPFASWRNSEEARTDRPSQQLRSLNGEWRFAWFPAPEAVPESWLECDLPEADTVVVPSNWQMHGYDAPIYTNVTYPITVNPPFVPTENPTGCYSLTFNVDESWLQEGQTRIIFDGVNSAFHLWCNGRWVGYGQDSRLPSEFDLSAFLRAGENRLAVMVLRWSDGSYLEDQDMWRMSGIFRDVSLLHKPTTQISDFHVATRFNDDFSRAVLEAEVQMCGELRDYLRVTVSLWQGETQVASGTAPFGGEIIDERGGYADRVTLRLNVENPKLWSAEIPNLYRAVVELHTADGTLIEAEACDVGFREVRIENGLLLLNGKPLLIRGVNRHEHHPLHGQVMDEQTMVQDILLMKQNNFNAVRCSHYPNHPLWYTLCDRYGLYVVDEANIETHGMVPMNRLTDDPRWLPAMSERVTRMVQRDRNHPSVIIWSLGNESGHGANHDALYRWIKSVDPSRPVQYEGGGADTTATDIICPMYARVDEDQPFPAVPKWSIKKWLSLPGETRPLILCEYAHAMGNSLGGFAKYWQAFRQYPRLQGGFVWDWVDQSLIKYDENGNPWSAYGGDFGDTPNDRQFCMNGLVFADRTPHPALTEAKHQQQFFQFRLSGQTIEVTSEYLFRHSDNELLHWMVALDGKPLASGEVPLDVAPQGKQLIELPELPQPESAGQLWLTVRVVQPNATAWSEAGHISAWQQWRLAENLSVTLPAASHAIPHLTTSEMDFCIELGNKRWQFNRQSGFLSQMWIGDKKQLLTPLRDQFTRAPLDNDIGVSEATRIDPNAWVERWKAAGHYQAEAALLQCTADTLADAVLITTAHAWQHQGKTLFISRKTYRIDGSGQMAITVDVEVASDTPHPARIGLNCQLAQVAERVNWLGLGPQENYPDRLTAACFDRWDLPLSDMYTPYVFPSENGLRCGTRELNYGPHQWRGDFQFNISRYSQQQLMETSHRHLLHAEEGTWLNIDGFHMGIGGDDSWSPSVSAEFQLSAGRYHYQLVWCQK

For `OC[C@H]1O[C@@H](SCCc2ccccc2)[C@H](O)[C@@H](O)[C@H]1O` [PETG, phenylethyl beta-D-thiogalactopyranoside], the Ki [1] was 0.00233 mM.

`OC[C@H]1OC(O)[C@H](O)[C@@H](O)[C@H]1O` (stereo partly shown) [Gal, galactose] gave a Ki [2] of 13.7 mM.

`O=[N+]([O-])c1ccccc1O[C@@H]1O[C@H](CO)[C@H](O)[C@H](O)[C@H]1O` [ONPG, o-nitrophenyl-β-D-galactopyranoside] gave a Km [3] of 167 µM.

B1: alcohol dehydrogenase (Saccharomyces cerevisiae S288C) (protein)
chain: SIPETQKGVIFYESHGKLEYKDIPVPKPKANELLINVKYSGVCHTDLHAWHGDWPLPVKLPLVGGHEGAGVVVGMGENVKGWKIGDYAGIKWLNGSCMACEYCELGNESNCPHADLSGYTHDGSFQQYATADAVQAAHIPQGTDLAQVAPILCAGITVYKALKSANLMAGHWVAISGAAGGLGSLAVQYAKAMGYRVLGIDGGEGKEELFRSIGGEVFIDFTKEKDIVGAVLKATDGGAHGVINVSVSEAAIEASTRYVRANGTTVLVGMPAGAKCCSDVFNQVVKSISIVGSYVGNRADTREALDFFARGLVKSPIKVVGLSTLPEIYEKMEKGQIVGRYVVDTSK
notes: yeast alcohol dehydrogenase (cat# A7011)
Work on B1 yielded a Km [4] of 14300 µM.
